According to patent US11541061B2, “Neuroblastoma treatment with taurolidine hydrolysis products” (CorMedix Inc., priority 2016, dated 2023):

Legend:
[1] = mean pharmacokinetic parameters of taurinamide and taurultam (FIGS. 10, 11); details: in vivo; mean pharmacokinetic parameter, weight-based AUC
Method: FIG. 10 is a chart showing the mean pharmacokinetic parameters of taurinamide; and
FIG. 11 is a chart showing the mean pharmacokinetic parameters of taurultam.
The taurinamide is given with a dosage range of from 5 mg/kg to 280 mg/kg, with optimal range between 5 mg/kg and 60 mg/kg, from once daily through weekly, for an effective period of time based on individual patient response.
The taurultam is given with a dosage range of from 5 mg/kg to 280 mg/kg, with optimal range between 5 mg/kg and 60 mg/kg, from once daily through weekly, for an effective period of time based on individual patient response.

SK-N-AS tumors = assay: SK-N-AS neuroblastoma tumors implanted subcutaneously in mice (FIGS. 3-8); type: in vivo, CB57 SCID mice
IMR5 tumors = assay: IMR5 neuroblastoma tumors implanted subcutaneously in mice (FIGS. 3-6); type: in vivo; details: IMR5 tumors implanted subcutaneously in CB57 SCID mice
Description: The efficacy observed with taurolidine treatment of IMR5 cell implants in vivo (FIGS. 3-6), despite IRM5's relatively high IC50 in vitro (FIG. 2), supports the conclusion that the hydrolysis products of taurolidine may have independent anti-neoplastic activity. […] Since it is known that taurolidine metabolizes to taurolidine hydrolysis products in vivo, this would support the conclusion that the hydrolysis products of taurolidine may have significant anti-neoplastic activity against neuroblastoma cells. In fact, it may be that the hydrolysis products of taurolidine have higher efficacy against neuroblastoma cells than taurolidine which has not been hydrolyzed.

neuroblastoma cell lines = assay: in vitro cell viability of neuroblastoma cell lines (FIG. 2); type: cell-based
Description: (§1) The IC50 values are between 80-140 microMolar for neuroblastoma cell lines, and 200 microMolar for normal fibroblasts (see FIG. 2).

leukemia cell lines = assay: in vitro sensitivity of leukemia cell lines compared to healthy lymphocytes (FIG. 1); type: cell-based; details: leukemia cell lines vs healthy lymphocytes
healthy fibroblasts (BJ) = assay: in vitro cell viability of healthy fibroblasts (FIG. 2); type: cell-based; details: Fibroblast, normal fibroblasts
Description: as §1

[2] = 5 grams intravenously by 20 minute infusion; cited from earlier work

| Structure (SMILES) | AUC(0-inf) [1] [µg·h/mL] | efficacy in tumors in vivo (SK-N-AS tumors; SK-N-AS tumors implanted subcutaneously in CB57 SCID mice) | overall survival (SK-N-AS tumors; mice implanted with SK-N-AS tumor, vs control) | tumor size (SK-N-AS tumors; mice with SK-N-AS cell line tumors, vs control) | efficacy in tumors in vivo (IMR5 tumors) | sensitivity to decrease in viability compared to healthy fibroblasts (neuroblastoma cell lines; neuroblastoma cell lines vs healthy fibroblasts (BJ), in vitro) | IC50 (neuroblastoma cell lines; neuroblastoma cell lines, cell viability in vitro, FIG. 2) [µM] | concentration at which in vitro efficacy is seen (neuroblastoma cell lines; neuroblastoma cell lines, highest two concentrations tested, FIG. 2) | sensitivity compared to healthy lymphocytes (leukemia cell lines) | IC50 (healthy fibroblasts (BJ)) [µM] | concentration of taurolidine in healthy volunteers [2] |
| --- | --- | --- | --- | --- | --- | --- | --- | --- | --- | --- | --- |
| NCCS(N)(=O)=O [Taurinamide, taurinamide] | 313 |  |  |  |  |  |  |  |  |  |  |
| O=S1(=O)CCN(CN2CCS(=O)(=O)NC2)CN1 [taurolidine] |  | measurable efficacy | not statistically different | Statistically significant decreases | efficacy | more sensitive | 80 to 140 | above 40 microMolar | more sensitive | 200 | NO measurable concentration |
